Reference: US20030236246A1, “Method for decreasing capillary permeability in the retina” (priority 2002, published 2003)

Assays:
[1] = system: C57B/J6 mice; assay: BRB breakdown in mice after intravitreal VEGF, quantitated with [3H]-mannitol tracer; type: in vivo
Source text: Intraperitoneally administered radiolabeled tracer can be used to quantitate BRB breakdown in mice exposed to vascular endothelial growth factor (VEGF). This technique is particularly advantageous with neonatal mice because of the technical difficulty involved with intravascular injections. Also, the comparison of retinas from injected and control eyes to tissues without a blood-tissue barrier corrects for variations in the amount of isotope injected or absorbed into the circulation.
Ten six- to seven-week-old C57B/J6 mice (Jackson Labs, Bar Harbor, Me.) are weighed to determine the proper dosage of anesthesia and tracer required. Mice are anesthetized with a solution containing 25 mg/kg ketamine (Ketaset; Fort Dodge Animal Health, Fort Dodge, Iowa) and 4 mg/kg rompun (Tranquived; Vedco, St. Joseph, Mo.) diluted 1:10 in saline prior to injection. Five mice are subjected to gavage with 50 mg/kg N-benzoyl staurosporine for three days prior to intravitreal administration of VEGF; the other five mice are subjected to gavage with vehicle.
Tropicamide (1%) is used to dilate the pupils of anesthetized mice. Under a dissecting microscope, a Harvard injector (PLI 100) is used with a glass pipet pulled to a diameter of 13-20 μm to inject 1 μl of saline containing VEGF (R&D Systems, Minneapolis, Minn.). The eyes are entered posterior to the limbus, directing the pipet toward the optic nerve. The solution is then deposited just in front of the retina without inflicting any damage to the lens. […]
One ml NCSII (Amersham, Chicago, Ill.) solubilizing solution is added to each vial and the vials are incubated overnight in a 50° C. water bath. […] The specimens are counted on a Wallac 1409 Liquid Scintillation Counter (Gaithersburg, :Md.).
The counts per mg tissue are determined for treated (with N-benzoyl staurosporine) and untreated retina, lung, and kidney. Ratios of these values for treated or untreated retina/lung or kidney and for lung/kidney are calculated. […]

[2] = system: C57BL/6J mice; assay: PG-induced breakdown of the BRB in mice after intraocular injection of a vasopermeability factor; type: in vivo; settings: 50 mg/kg/day by gavage for 3 days, then intraocular PGE1 or PGE2 10^-5 M
Protocol: Six to seven week old male C57BL/6J mice are treated in accordance with the ARVO resolution on the care of animals in research. Mice are treated by gavage with vehicle or vehicle containing 50 mg/kg/day of PKC412, PTK787, SU1498, or Gleevec. After 3 days of treatment, mice are given an intraocular injection of 1 μl of vehicle containing a vasopermeability factor or vehicle alone.
Mice are anesthetized with 25 mg/kg of ketamine and 4 mg/kg of xylazine, pupils are dilated with 1% tropicamide. Intraocular injections are performed as previously described with a Harvard pump microinjection apparatus and pulled glass micropipets. Each micropipet is calibrated to deliver 1 μl of vehicle upon depression of a foot switch. […] Some mice are used for quantitative measurement of BRB breakdown using [3H]mannitol and in others leakage of albumin through retinal vessels is assessed by Western blots or immunohistochemistry.
Six or 24 hours after intraocular injections, mice are given an intraperitoneal injection of 1 μCi / gram body weight of [3H]mannitol (New England Nuclear, Boston, Mass.). […] The vials are weighed and the tissue weights are recorded. […] Radioactivity is counted with a Wallac 1409 Liquid Scintillation Counter (Gaithersburg, Md.). […]

[3] = mice, 50 mg/kg by gavage for three days before intravitreal VEGF 10^-6 M, [3H]-mannitol at 6 hours

Compound | leakage of radioactive tracer out of the retinal blood vessels ([1]; VEGF-injected mice given 50 mg/kg N-benzoyl staurosporine by gavage for three days, compared to vehicle-gavaged VEGF-injected mice) | retina/kidney ratio [1, 3] | retina/lung ratio (cpm per mg of retina/cpm per mg of lung) [1, 3] | PG-induced breakdown of the BRB [2]
CO[C@@H]1[C@H](N(C)C(=O)c2ccccc2)C[C@H]2O[C@]1(C)n1c3ccccc3c3c4c(c5c6ccccc6n2c5c31)C(=O)NC4 [N-benzoyl staurosporine] | significantly less leakage | 0.3881±0.0436 | 0.6326±0.0656 | reduces PG-induced breakdown of the BRB
Clc1ccc(Nc2nnc(Cc3ccncc3)c3ccccc23)cc1 [PTK787, reference compound] |  |  |  | not
